Assays:
His6-GlgXEC = target: T1, His6-GlgXEC (Escherichia coli, UniProt P15067); test: DRaCALA with [32P]-c-di-GMP, E. coli GlgX; type: binding; conditions: 15 µg E. coli His6-GlgX
T1 construct: made in house; host or cells: E. coli Rosetta (DE3), pET15b
Procedure: For DRaCALA assays, purified His6-GlgX (15 μg) was mixed with 0.5 μl undiluted [^32P]-c-di-GMP (42 nM) (Hartmann Analytic GmbH, Braunschweig) in binding buffer (25 mM Tris pH 8; 150 mM NaCl; 2.5% (v/v) glycerol; 5 mM MgCl2) and the reaction was incubated at rt for 5 min. For competition assays, 100 μM nonlabeled nucleotides were added to the samples and incubated at rt for 5 min prior to the addition of [^32P]-c-di-GMP. Reactions (10 μl) were spotted on the same nitrocellulose membrane (Roth), air dried for 10 min and analyzed via phosphorimaging.
(a) 15 µg of purified E. coli His6-GlgX
167 or His6-Vnz25270, respectively, were mixed with 0.5 µl of [32P]-c-di-GMP (Hartmann Analytic
168 GmbH, Braunschweig) in binding buffer (25 mM Tris pH 8.0, 150 mM NaCl, 2.5% (v/v) glycerol
169 and 5 mM MgCl2). 10 µL of the reactions were spotted on the same nitrocellulose membrane (Roth),
170 air dried for 10 min and analyzed by phosphorimaging. (b, c) 10 µM purified His6-Vnz25270 (b) or
171 His6-GlgXE.coli (c) in 25 mM Tris pH 8.0, 150 mM NaCl, 2.5% (v/v) glycerol and 5 mM MgCl2 were
172 incubated without or with (1 mM) c-di-GMP. Reactions were analyzed in a Tycho NT.6
173 (NanoTemper Technologies) device.
(1 picture or pasted object on this page, not shown here)

His6-GlgXDETR49-52 = test: BCA reducing-end enzyme assay, GlgXDETR49-52; type: biochemical, Streptomyces venezuelae; conditions: 50 µM c-di-GMP, 0.05% glycogen from rabbit, 1 µM enzyme
Procedure: Fig. 2 c-di-GMP stimulates glycogen breakdown activity of GlgX in vitro. a Bicinchoninic acid (BCA) in vitro enzyme assay. The purple copper bicinchoninate complex indicating GlgX-mediated generation of reducing ends in glycogen was quantified by photometric measurements at 562 nm. A562 values were converted into reducing ends [µM glucose equivalents] based on D-glucose as a standard. Reactions contained 0.05% (w/v) glycogen from rabbit, 1 µM GlgX and increasing concentrations of c-di-GMP (0–100 µM). Source data are provided as a Source data file. b BCA assay containing 0.05% of either glycogen from rabbit, pullulan, amylopectin from maize or amylose from potato as substrates. Where appropriate, 1 µM GlgX or 50 µM c-di-GMP were added to the reaction samples. Source data are provided as a Source data file. c BCA assay as in a with or without c-di-GMP (50 µM), 0.05% glycogen from rabbit (S) and 1 µM Vnz25270, GlgX, the active site mutants GlgXD342A, GlgXE378A, GlgXD342A+E378A, or the c-di-GMP-binding mutant variant GlgXDETR49-52 as indicated. […]
Hydrolysis of carbohydrates was assessed in vitro by measuring the accumulation of reducing sugar ends using the BCA assay[42] and D-glucose as a standard for calibration (Supplementary Fig. 11). […] 125 μl sample aliquots were transferred in duplicates to a 96 well plate and the absorbance at 562 nm was measured using a plate reader.

T1 sequence (P15067 whole entry): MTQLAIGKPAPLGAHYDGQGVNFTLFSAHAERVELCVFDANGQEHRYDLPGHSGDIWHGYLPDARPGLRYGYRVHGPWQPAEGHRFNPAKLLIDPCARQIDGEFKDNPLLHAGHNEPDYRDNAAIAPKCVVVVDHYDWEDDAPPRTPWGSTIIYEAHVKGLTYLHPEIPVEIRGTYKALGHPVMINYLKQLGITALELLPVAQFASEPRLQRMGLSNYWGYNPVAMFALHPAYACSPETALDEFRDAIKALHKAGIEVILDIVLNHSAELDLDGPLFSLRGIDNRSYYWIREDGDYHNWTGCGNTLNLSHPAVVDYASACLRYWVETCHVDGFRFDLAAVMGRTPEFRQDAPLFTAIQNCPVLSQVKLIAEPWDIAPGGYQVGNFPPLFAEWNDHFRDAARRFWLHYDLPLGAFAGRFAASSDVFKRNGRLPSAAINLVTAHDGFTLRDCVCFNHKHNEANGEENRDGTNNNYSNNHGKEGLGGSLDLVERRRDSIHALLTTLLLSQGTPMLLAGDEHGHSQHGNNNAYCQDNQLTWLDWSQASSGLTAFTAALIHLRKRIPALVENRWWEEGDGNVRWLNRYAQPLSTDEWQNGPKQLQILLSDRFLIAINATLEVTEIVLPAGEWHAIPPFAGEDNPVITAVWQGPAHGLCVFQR

Nc1nc2c(ncn2[C@@H]2O[C@@H]3CO[P@](=O)(O)O[C@H]4[C@@H](O)[C@H](n5cnc6c(=O)[nH]c(N)nc65)O[C@@H]4CO[P@](=O)(O)O[C@H]3[C@H]2O)c(=O)[nH]1 [c-di-GMP, bis-(3′−5′)-cyclic diguanosine monophosphate]
binding of [32P]-c-di-GMP in DRaCALA (His6-GlgXEC): did not detect any interactions
effect of c-di-GMP on hydrolytic activity (His6-GlgXDETR49-52): remained at basal levels

Source: article PMC9530166, “Allosteric regulation of glycogen breakdown by the second messenger cyclic di-GMP” (Nature Communications, 2022)
